Experimental findings from US20090053278A1, “ANTI-MICROBIAL COMPOSITIONS AND DEVICES AND METHODS OF USING THE SAME” (priority 2006, published 2009) are described below.

The subject of assay [1] is Staphylococcus epidermididis (RP62A; "Christensen Strain") grown as a biofilm. The assay is described as follows: MBEC of biofilm, MBEC device, 24 hour exposure. The note with it: S. epidermidis biofilm, 10% MHB in PBS, listed as eCAP sterilized by ethylene oxide. Type of assay: cell-based, Staphylococcus epidermidis. An excerpt: (§1) The procedure provided describes an assay for testing 2 organisms (S. epidermidis and S. aureus) grown as a biofilm against 2 antimicrobial agents (gentamicin and an eCAP peptide) using a 96 well microtitre plate. The procedure will allow one to compare the MIC and MBEC values for each organism against each antimicrobial agent and against each other.
(§2) Microorganisms used were Staphylococcus epidermididis (RP62A; “Christensen Strain”) and Staphylococcus aureus (University of Calgary clinical isolate, strain 2645).
One set of test panels as shown above was prepared for each organism to determine the MIC and MBEC after a 24 hour exposure to each test material. SC wells are sterility controls for each experiment. GC is the growth control for each row. The working solution of gentamicin was 3 μmol/ml and 1 μmol/ml for eCAP. No SEM samples were taken for analysis due to test material shortage. […]
Recovery of Surviving Biofilm: Rinse plate(s) of 0.9% sterile saline (200 μL per well) were prepared in a sterile 96 well micro titre plate. […] The recovery plates were incubated at 37° C. for 24 hours and read using the plate ready to determine MBEC values.
(§3) Therefore, 10% MHB was used as a diluent instead of TSB. […] The MIC and MBEC values were determined as the dilution immediately before the concentration where growth was first observed, as depicted in Table 9 below.

Assay [2] has as its system Staphylococcus aureus (University of Calgary clinical isolate, strain 2645) grown as a biofilm. The assay is described as follows: MBEC of biofilm, MBEC device, 24 hour exposure. As to conditions: S. aureus biofilm, 10% MHB in PBS. Type of assay: cell-based.
Excerpt: as §1, §2
(§4) One set of test panels as shown above was prepared for each organism to determine the MIC and MBEC after a 24 hour exposure to each test material. SC wells are sterility controls for each experiment. GC is the growth control for each row. The working solution of gentamicin was 3 μmol/ml and 1 μmol/ml for eCAP. No SEM samples were taken for analysis due to test material shortage.
(§5) A working solution of eCAP or Gentamicin (1 μMoles/mL and 3 μMoles/mL respectively) was made in 10% MHB in sterile PBS. 200 μl of 10% MHB was added to ‘column’ 12 to serve as sterility controls (SC) and growth controls (GC) for each organism. 100 μl of 10% MHB was added to ‘columns’ 2 to 11. 200 μl of the appropriate working solution was added to ‘column’ 1 of the microtitre plate. 100 μl of the appropriate working solution was added to ‘column’ 2 and ‘column’ 3 of the microtitre plate. Using the multichannel micropipette, the contents of ‘column’ 3 was mixed by pipetting up and down. After mixing, 100 μl was transferred from the wells in ‘column’ 3 to the corresponding wells in ‘column’ 4. This was repeated until reaching ‘column’ 1. Using a pipet, 100 μl from each well in ‘column’ 11 was ejected. 100 μl of growth media was then added to all wells except A1 to H1, A2 to H2, and A12 to H12.
Antimicrobial Challenge of Biofilm: Rinse plate(s) of saline (200 μL per well) were prepared. Planktonic cells from biofilm that had formed on the lid of the MBEC device were rinsed by dipping the lid into the saline for 1-2 minutes. The lid was transferred to the challenge plate and incubated at 37° C. for 24 hours on a gyrating platform set at approximately 150 rpm.
Recovery of Surviving Biofilm: Rinse plate(s) of 0.9% sterile saline (200 μL per well) were prepared in a sterile 96 well micro titre plate. Pegs were rinsed in 0.9% sterile saline for 1 to 2 minutes. […] The recovery plates were incubated at 37° C. for 24 hours and read using the plate ready to determine MBEC values.
as §3

Assay [3] concerns Staphylococcus epidermididis (RP62A; "Christensen Strain"). The assay is described as follows: Planktonic MIC, MBEC device, 24 hour exposure. The assay is classed as cell-based, Staphylococcus epidermidis. As to conditions: S. epidermidis, 10% MHB in PBS.
Excerpt: as §1, §2, §4
as §5, with “This was repeated until reaching ‘column’ 1. Using a pipet, 100 μl from each well in ‘column’ 11 was ejected. 100 μl of growth media was then added to all wells except A1 to H1, A2 to H2, and A12 to H12.” left out
Determination of Planktonic MIC: The challenge plate was incubated at 37° C. for 24 hours and read using a plate reader to determine MIC values. The MIC (minimum inhibitory concentration) was determined for compound eCAP/gentamicin for each organism shed from the biofilm during the challenge incubation. […]
as §3

A short description of assay [4]: antimicrobial activity retained after sterilization. The source says: In a useful embodiment of the present invention, the antimicrobial peptides may retain antibacterial activity after a device coated with the antimicrobial peptide is sterilized.
A further assay has as its system Enterococcis faecalis. The assay is described as follows: in-vitro assay of peptide-coated plastic endodontic obturators. Type of assay: cell-based. As to conditions: peptide immobilized on plastic obturators; data not shown. The source says:
Medical standard plastic endodontic obturators were coated with an antimicrobial peptide. […] The obturators were coated with a tie layer. A parylene coating containing a reactive molecule specific for the N-terminus region of the peptide (“Photopolymer”) was then applied over the tie layer. The peptide WLBU-2 (SEQ ID NO. 179) was applied to the parylene coating and exposed to UV light to facilitate covalent bonding of the peptide with the parylene coating. Non-coated obturators were used as controls. All samples and controls were subjected to ethylene oxide sterilization. The coated samples were placed in 75% relative humidity overnight.

Where [5] appears, read: listed as eCAP sterilized by ethylene oxide.

Values after ≈ are worked out from the molar mass of the structure shown. Where a SMILES comes first, the peptide text is derived from it.

Take `CC(C)[C@H](NC(=O)[C@H](Cc1c[nH]c2ccccc12)NC(=O)[C@H](CCCNC(=N)N)NC(=O)[C@H](CCCNC(=N)N)NC(=O)[C@@H](NC(=O)[C@@H](NC(=O)[C@H](CCCNC(=N)N)NC(=O)[C@@H](NC(=O)[C@@H](NC(=O)[C@H](CCCNC(=N)N)NC(=O)[C@H](CCCNC(=N)N)NC(=O)[C@H](Cc1c[nH]c2ccccc12)NC(=O)[C@@H](NC(=O)[C@H](CCCNC(=N)N)NC(=O)[C@H](CCCNC(=N)N)NC(=O)[C@@H](NC(=O)[C@H](CCCNC(=N)N)NC(=O)[C@H](CCCNC(=N)N)NC(=O)[C@@H](NC(=O)[C@H](Cc1c[nH]c2ccccc12)NC(=O)[C@H](CCCNC(=N)N)NC(=O)[C@@H](N)CCCNC(=N)N)C(C)C)C(C)C)C(C)C)C(C)C)C(C)C)C(C)C)C(C)C)C(=O)N[C@@H](CCCNC(=N)N)C(=O)N[C@@H](CCCNC(=N)N)C(=O)O` [Ethylene oxide eCAP] (H-RRWVRRVRRVWRRVVRVVRRWVRR-OH; N-terminus and C-terminus assumed): the MBEC in assay [1] is 0.0078 µmol/mL; in assay [2] (setting [5]), “approximately 0.0039 μmol/ml”. In assay [3] (setting [5]), this compound gave an MIC of 3.9 µM (≈ 13.3 µg/mL).

For the compound `CC(C)[C@H](NC(=O)[C@H](Cc1c[nH]c2ccccc12)NC(=O)[C@H](CCCNC(=N)N)NC(=O)[C@H](CCCNC(=N)N)NC(=O)[C@@H](NC(=O)[C@@H](NC(=O)[C@H](CCCNC(=N)N)NC(=O)[C@@H](NC(=O)[C@@H](NC(=O)[C@H](CCCNC(=N)N)NC(=O)[C@H](CCCNC(=N)N)NC(=O)[C@H](Cc1c[nH]c2ccccc12)NC(=O)[C@@H](NC(=O)[C@H](CCCNC(=N)N)NC(=O)[C@H](CCCNC(=N)N)NC(=O)[C@@H](NC(=O)[C@H](CCCNC(=N)N)NC(=O)[C@H](CCCNC(=N)N)NC(=O)[C@@H](NC(=O)[C@H](Cc1c[nH]c2ccccc12)NC(=O)[C@H](CCCNC(=N)N)NC(=O)[C@@H](N)CCCNC(=N)N)C(C)C)C(C)C)C(C)C)C(C)C)C(C)C)C(C)C)C(C)C)C(=O)N[C@@H](CCCNC(=N)N)C(=O)N[C@@H](CCCNC(=N)N)C(=O)O` [High dose Irradiated eCAP] (H-RRWVRRVRRVWRRVVRVVRRWVRR-OH; N-terminus and C-terminus assumed), the MBEC result in assay [2] (listed as eCAP sterilized by high dose irradiation) is reported as “approximately 0.016 μmol/ml”.

On to `CC(C)[C@H](NC(=O)[C@H](Cc1c[nH]c2ccccc12)NC(=O)[C@H](CCCNC(=N)N)NC(=O)[C@H](CCCNC(=N)N)NC(=O)[C@@H](NC(=O)[C@@H](NC(=O)[C@H](CCCNC(=N)N)NC(=O)[C@@H](NC(=O)[C@@H](NC(=O)[C@H](CCCNC(=N)N)NC(=O)[C@H](CCCNC(=N)N)NC(=O)[C@H](Cc1c[nH]c2ccccc12)NC(=O)[C@@H](NC(=O)[C@H](CCCNC(=N)N)NC(=O)[C@H](CCCNC(=N)N)NC(=O)[C@@H](NC(=O)[C@H](CCCNC(=N)N)NC(=O)[C@H](CCCNC(=N)N)NC(=O)[C@@H](NC(=O)[C@H](Cc1c[nH]c2ccccc12)NC(=O)[C@H](CCCNC(=N)N)NC(=O)[C@@H](N)CCCNC(=N)N)C(C)C)C(C)C)C(C)C)C(C)C)C(C)C)C(C)C)C(C)C)C(=O)N[C@@H](CCCNC(=N)N)C(=O)N[C@@H](CCCNC(=N)N)C(=O)O` [Low dose irradiated eCAP] (H-RRWVRRVRRVWRRVVRVVRRWVRR-OH; N-terminus and C-terminus assumed), for which the MBEC entry in assay [2] (listed as eCAP sterilized by low dose irradiation) was “approximately 0.063 μmol/ml”.

Consider `CC(C)[C@H](NC(=O)[C@H](Cc1c[nH]c2ccccc12)NC(=O)[C@H](CCCNC(=N)N)NC(=O)[C@H](CCCNC(=N)N)NC(=O)[C@@H](NC(=O)[C@@H](NC(=O)[C@H](CCCNC(=N)N)NC(=O)[C@@H](NC(=O)[C@@H](NC(=O)[C@H](CCCNC(=N)N)NC(=O)[C@H](CCCNC(=N)N)NC(=O)[C@H](Cc1c[nH]c2ccccc12)NC(=O)[C@@H](NC(=O)[C@H](CCCNC(=N)N)NC(=O)[C@H](CCCNC(=N)N)NC(=O)[C@@H](NC(=O)[C@H](CCCNC(=N)N)NC(=O)[C@H](CCCNC(=N)N)NC(=O)[C@@H](NC(=O)[C@H](Cc1c[nH]c2ccccc12)NC(=O)[C@H](CCCNC(=N)N)NC(=O)[C@@H](N)CCCNC(=N)N)C(C)C)C(C)C)C(C)C)C(C)C)C(C)C)C(C)C)C(C)C)C(=O)N[C@@H](CCCNC(=N)N)C(=O)N[C@@H](CCCNC(=N)N)C(=O)O` [WLBU-2, RRWVRRVRRVWRRVVRVVRRWVRR] (H-RRWVRRVRRVWRRVVRVVRRWVRR-OH; N-terminus and C-terminus assumed), for which the “effect of sterilization methods on antimicrobial activity” value in assay [4] (high and low dose gamma radiated and ethylene oxide, MIC/MBEC against S. aureus and S. epidermidis) was “not detrimental to its antimicrobial activity”. In assay [4] (peptide coated on a substrate), the “antimicrobial activity after ethylene oxide sterilization” value is listed as “retained antimicrobial activity”. The “efficacy against Enterococcis faecalis of immobilized peptide” value with Enterococcis faecalis was “efficacy against Enterococcis faecalis”. The MIC in assay [3] (listed as eCAP) is 3.9 µM (≈ 13.3 µg/mL).

In turn, Gentamicin [reference compound] registered an MBEC in assay [2] of 1.5 µmol/mL. In addition, the MIC in assay [3] is 1500 µM.
